Measurements reported in US20250152580A1, “METHODS FOR TREATING IMMUNE DISEASES” (Ascentage Pharma (Suzhou) co., Ltd., priority 2022, published 2025).
“Also recorded” adds a separate entry of the source.

Tested on: DSS induced IBD (colitis) model
Assay: DSS induced inflammatory bowel disease (IBD) model in C57BL/6 mice
Type: in vivo
Conditions: for pathological score (colon): day 8, vehicle 10.10±0.17
Description: Female C57BL/6 mice (8 weeks old) were obtained from Beijing Vital River Laboratory Animal Co. Ltd. Animals were housed and handled in a temperature-controlled environment with a 12-h light/12-h dark cycle. A total of 50 mice were assigned to 5 groups by randomization based on body weight.
On Day 0, colitis was induced by administration of 3% DSS (dextran sodium sulfate, molecular weight 36,000-50,000) in drinking water ad libitum for 8 days. 8-week-old mice were divided into 5 groups: Group 2, DSS treatment group (vehicle, po, qd, from day 0 to day 7); Group 3, DSS with 30 mg/kg Cpd. 4 (po, qd, from day 0 to day 7); Group 4, DSS with 100 mg/kg Cpd. 4 (po, qd, from day 0 to day 7); and Group 5, DSS with 50 mg/kg Cyclosporine (po, qd, from day 0 to day 7). For the Group 1 (G1) Sham group, the mice were provided drinking water without DSS.
Clinical signs of IBD were assessed every day based on the scores of disease activity index (DAI) which was evaluated from three parameters using a scoring system from 0 to 4: stool consistency (0, normal stool; 1, soft but still formed stool; 2, soft and not formed stool; 3, very soft and wet stool; 4, watery diarrhea), bleeding score (0, negative hemoccult; 1, weak positive hemoccult; 2, positive hemoccult; 3, blood trace in stool visible; 4, gross rectal bleeding) and body weight loss (0, no body weight loos; 1, 1-5% body weight loss; 2, 6-10% body weight loss; 3, 11-20% body weight loss; 4, >20% body weight loss).
At the end of induction with DSS, the animals were euthanized, dissected and the entire colon was quickly removed and gently cleared of feces.
The entire colon was weighed, and the total length was measured. Colon weight gain and shortening is an indirect marker of inflammation. As expected, DSS increased colon weight to 243.8±10.73 mg. Cpd. […] 4 treatment (FIG. 11).
The colon of a mouse was Swiss-rolled and fixed with neutralized PFA followed by H&E staining. After that, the pathologists from WuXi clinical pathological analysis platform, who were blinded to animal ID, reviewed the H&E staining and scored. The pathological scoring standards were as follows: crypt architecture (normal, 0; severe crypt distortion with loss of entire crypts, 3), degree of inflammatory cell infiltration (normal, 0; dense inflammatory infiltrate, 3), muscle thickening (normal, 0; marked muscle thickening present, 3), goblet cell depletion (absent, 0; present, 1) and crypt abscess (absent, 0; present, 1).
At the end of the study (day 8), all the animals were sacrificed by CO2, and the colon tissues were collected and fixed in 10% formalin for pathological analysis (H&E and LFB staining). The histopathological score was evaluated microscopically in a blinded manner.

[1] = Cpd. 4 30 and 100 mg/kg po qd, compared with Vehicle

Compound: O=C(NS(=O)(=O)c1ccc(NC[C@H]2COCCO2)c([N+](=O)[O-])c1)c1ccc(N2CCN(CC3=C(c4ccc(Cl)cc4)CC4(CCC4)CC3)CC2)cc1Oc1cnc2[nH]ccc2c1 [Cpd. 4, (S)-N-((4-(((1,4-dioxan-2-yl)methyl)amino)-3-nitrophenyl)sulfonyl)-2-((1H-pyrrolo[2,3-b]pyridin-5-yl)oxy)-4-(4-((6-(4-chlorophenyl)spiro[3.5]non-6-en-7-yl)methyl)piperazin-1-yl)benzamide]
- colon length (30 mg/kg po qd day 0 to day 7, vehicle 4.81±0.08 cm): 5.25±0.11 cm
- colon weight (30 mg/kg po qd day 0 to day 7, vehicle 243.8±10.73 mg): 188.4 ± 10.48 mg
- pathological score (colon) (30 mg/kg po qd): 6.70±0.25
- pathological score (colon) (100 mg/kg po qd): 3.70±0.25
- disease activity index (DAI), clinical score of IBD (Cpd. 4 30 and 100 mg/kg po qd day 0 to day 7, cyclosporine 50 mg/kg po qd, compared with Vehicle): significantly reducing the clinical score; also recorded: significantly reduced
- colon length (in words) [1]: significantly increased
- colon weight (in words) [1]: significantly decreased
- pathological score (in words) (Cpd. 4, compared with Vehicle): significantly decreased
